From article PMC8745486, “Removal of Persistent Sulfamethoxazole and Carbamazepine from Water by Horseradish Peroxidase Encapsulated into Poly(Vinyl Chloride) Electrospun Fibers” (International Journal of Molecular Sciences, 2021) come the findings set out here.

Where a name gives a salt, the structure may show the parent alone.

The experiment relates to T1, horseradish peroxidase (HRP).
T1 construct: gene PRXC1A
To be noted: read-out: Free HRP; free enzyme; pH 7, 25 °C; 0.1 to 5 mM ABTS; H2O2 not stated for the kinetic assay.

On to `CCn1c(=NN=c2sc3cc(S(=O)(=O)O)ccc3n2CC)sc2cc(S(=O)(=O)O)ccc21` [ABTS, 2,2′-azino-bis(3-ehylbenzothiazoline-6-sulfonic acid) diammonium salt], for which the Km was 1540 ± 130 µM.
